The record followed here is US4954482A, “New glycopeptide antibiotic” (Pfizer Inc., priority 1986, dated 1990).

This assay concerns rumen fluid. Put plainly: In vitro rumen technique: propionic acid production. It counts as cell-based, cow. The note with it: 10 micrograms per milliliter; rumen fluid incubated at 39° C. about 16 hours. As to the method:
The value of animal feeds has generally been determined directly by feeding the animal. British Patent Specification No. 1,197,826 details an in vitro rumen technique whereby the changes occurring in feeds brought about by microorganisms are measured more readily and with great accuracy in the evaluation of animal feeds. This technique involves the use of an apparatus in which the digestive processes of the animals are conducted and studied in vitro. The animal feeds, rumen inoculum and various growth promotants are introduced into and withdrawn from a laboratory unit under carefully controlled conditions and the changes taken place are studied critically and progressively during the consumption of the feed by the microorganisms. […] The change in propionic acid content is expressed as percent of the propionic acid content found in the control rumen fluid. Long term in vivo feeding studies are used to show a reliable correlation between propionic acid increase in the rumen fluid and improved animal performance. […]
After incubation, 5 ml. of the sample is mixed with 1 ml. of 25% metaphosphoric acid. […] Samples are then analyzed by gas-liquid chromatography by the mthod of D. W. Kellog, J. Dairy Science, 52, 1690, 1969. Peak heights for acetic, propionic and butyric acids are determined for samples from untreated and treated incubation flasks.

On to `CC[C@@H](C(=O)[C@@H](C)[C@@H](O)[C@H](C)[C@@H]1O[C@@H]([C@@H](CC)C(=O)O)CC[C@@H]1C)[C@H]1O[C@]2(C=C[C@@H](O)[C@]3(CC[C@@](C)([C@H]4CC[C@](O)(CC)[C@H](C)O4)O3)O2)[C@H](C)C[C@@H]1C` [salinomycin], for which the “increase in the production of propionic acid over control” value is on record as roughly 46%.
